This passage reports Ki results from patent US6875761B2 (Eisai Co., Ltd., priority 1997, dated 2005).

One assay concerns the target T1, serotonin 1A receptor (Rattus norvegicus, UniProt P19327).
T1 construct: To the receptor fraction of the hippocampus were added a test compound and 0.5 nM of [^3H]; 8-hydroxy-dipropylaminotetralin; from tissue; host or cells: rat hippocampus membrane fraction
T1 sequence (P19327 1-422): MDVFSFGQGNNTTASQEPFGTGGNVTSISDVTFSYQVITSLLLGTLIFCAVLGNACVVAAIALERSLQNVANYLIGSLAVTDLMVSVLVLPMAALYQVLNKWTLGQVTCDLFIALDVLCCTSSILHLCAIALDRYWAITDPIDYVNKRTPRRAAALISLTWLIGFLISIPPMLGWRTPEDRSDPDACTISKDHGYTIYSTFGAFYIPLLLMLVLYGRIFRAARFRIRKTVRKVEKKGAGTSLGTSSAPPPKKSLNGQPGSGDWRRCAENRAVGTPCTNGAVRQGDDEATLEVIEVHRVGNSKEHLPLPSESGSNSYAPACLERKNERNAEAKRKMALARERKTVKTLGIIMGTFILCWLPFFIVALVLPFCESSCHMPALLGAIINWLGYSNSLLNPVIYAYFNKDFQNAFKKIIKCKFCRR
As to the kind of experiment: Binding test on [3H] 8-hydroxy-dipropylaminotetralin, hippocampus receptor fraction. On the set-up: species or system SD rats. Particulars: rat hippocampus receptor fraction, 0.5 nM [3H] 8-OH-DPAT, room temperature 30 min; read-out: 5HT1.

A further assay deals with T2, serotonin 2 receptor (Rattus norvegicus, UniProt P14842).
T2 construct: To the receptor fraction of the cerebral cortex were added a test compound and 0.3 nM of [^3H] ketanserin; from tissue; host or cells: rat cerebral cortex membrane fraction
T2 sequence (P14842 whole entry): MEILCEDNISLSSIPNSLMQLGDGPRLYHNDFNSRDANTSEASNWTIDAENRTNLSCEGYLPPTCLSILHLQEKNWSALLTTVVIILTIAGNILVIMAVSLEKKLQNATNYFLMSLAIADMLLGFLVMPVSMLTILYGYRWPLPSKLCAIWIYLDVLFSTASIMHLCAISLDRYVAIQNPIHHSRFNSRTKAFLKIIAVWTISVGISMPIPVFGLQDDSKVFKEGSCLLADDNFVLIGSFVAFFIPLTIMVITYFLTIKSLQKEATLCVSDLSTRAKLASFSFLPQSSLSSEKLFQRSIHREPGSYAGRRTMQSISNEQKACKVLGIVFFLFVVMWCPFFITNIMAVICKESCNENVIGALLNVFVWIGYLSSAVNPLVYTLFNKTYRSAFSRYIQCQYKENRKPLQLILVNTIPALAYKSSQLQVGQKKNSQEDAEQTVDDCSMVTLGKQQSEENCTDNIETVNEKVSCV
As to the kind of experiment: Binding test on [3H] ketanserin, cerebral cortex receptor fraction. On the set-up: species or system SD rats. Particulars: 0.3 nM [3H] ketanserin, 37° C. 15 min, read-out: 5HT2.

Where a name gives a salt, the structure may show the parent alone.

As to `CCN1CCN(c2nc(-c3ccc(OCCOC)c(OCCOC)c3)cc3ccccc23)CC1` [Example 43, 3-[3,4-Di(2-Methoxyethoxy)Phenyl]-1-(4-Ethylpiperazin-1-Yl)Isoquinoline Hydrochloride], the Ki was found to be 29.3 nM at serotonin 1A receptor and 66.6 nM on serotonin 2 receptor.

For `CCN1CCN(c2nc(-c3ccc(CC(C)CO)cc3)cc3ccsc23)CC1` (stereo not drawn) [Example 441, 7-(4-ethylpiperazin-1-yl)-5-[4-(3-hydroxy-2-methylpropyl)phenyl]thieno[2,3-c]pyridine dihydrochloride], the Ki was 15.2 nM at serotonin 1A receptor and 0.41 nM at serotonin 2 receptor.

Regarding `CCN1CCN(c2nc(-c3ccc(C(O)CC(C)C)cc3)cc3ccsc23)CC1` (stereo not drawn) [Example 255, 7-(1-ethylpiperazin-4-yl)-5-[4-(1-hydroxy-3-methylbutyl)phenyl]thieno[2,3-c]pyridine Dihydrochloride], the results for the Ki at serotonin 1A receptor and at serotonin 2 receptor were 75.4 nM and 40 nM, respectively.

Regarding `CCN1CCN(c2nc(-c3ccc(CC(C)(C)CO)cc3)cc3ccsc23)CC1` [Example 442, 7-(4-ethylpiperazin-1-yl)-5-[4-(3-hydroxy-2,2-dimethylpropyl)phenyl]thieno[2,3-c]pyridine dihydrochloride], the Ki on serotonin 1A receptor turned out to be 23.2 nM; on serotonin 2 receptor it was 2.66 nM.

On to `CCN1CCN(c2nc(-c3ccc(OC)c(CCCO)c3)cc3ccccc23)CC1` [Example 34, 3-[3-(3-hydroxypropyl)-4-methoxyphenyl]-1-(4-ethylpiperazin-1-yl)isoquinoline hydrochloride], for which the Ki at serotonin 1A receptor was 23.5 nM; at serotonin 2 receptor, 17.3 nM.

Take `CCN1CCN(c2nc(-c3ccc(C4=CCOCC4)cc3)cc3ccccc23)CC1` [Example 84, 3-[4-(5,6-Dihydro-2H-pyran-4-yl)phenyl]-1-(4-ethylpiperazin-1-yl)isoquinoline Hydrochloride]: the values for the Ki on serotonin 1A receptor and at serotonin 2 receptor were 72.1 nM and 0.9 nM, respectively.

As for `CCN1CCN(c2nc(/C=C\c3ccc(OC)cc3)cc3ccccc23)CC1` [Example 191, 1-(1-Ethylpiperazin-4-Yl)-3-[Cis-2-(4-Methoxyphenyl)Ethenyl]Isoquinoline Oxalate], the Ki at serotonin 1A receptor stood at 13 nM; on serotonin 2 receptor it was 0.93 nM.

On to `CCN1CCN(c2nc(-c3ccc(CO)c(F)c3)cc3ccccc23)CC1` [Example 28, 1-(4-ethylpiperazin-1-yl)-3-[4-(4-hydroxymethyl-3-fluoro)phenyl]isoquinoline hydrochloride], for which the Ki at serotonin 1A receptor is 24.4 nM; at serotonin 2 receptor, 9.1 nM.

With `CCN1CCN(c2nc(-c3ccc(OCCCSC)cc3)cc3ccccc23)CC1` [Example 54, 3-[4-(3-Methylthiopropoxy)Phenyl]-1-(4-Ethylpiperazin-1-Yl)Isoquinoline Hydrochloride], the Ki is 62.1 nM at serotonin 1A receptor and 4.9 nM on serotonin 2 receptor.

Turning to `CCN1CCN(c2nc(-c3ccc(N4CCC5(CC4)OCCO5)cc3)cc3ccccc23)CC1` [Example 96, 3-[4-(4,4-Ethylenedioxypiperidin-1-yl)phenyl]-1-(4-ethylpiperazin-1-yl)isoquinoline], the Ki at serotonin 1A receptor was 138 nM; at serotonin 2 receptor, 0.1 nM.

Regarding `CCNC(=O)c1ccc(-c2cc3ccsc3c(N3CCN(CC)CC3)n2)cc1` [Example 448, 7-(4-ethylpiperazin-1-yl)-5-[4-(N-ethylcarbamoyl)phenyl]thieno[2,3-c]pyridine dihydrochloride], the Ki at serotonin 1A receptor is 22.6 nM; on serotonin 2 receptor, 346 nM.

As to `CCN1CCN(c2nc(C(O)c3ccc(OC)cc3)cc3ccccc23)CC1` (stereo not drawn) [Example 104, 3-[α-Hydroxy-(4-methoxybenzyl)]-1-(4-ethylpiperazin-1-yl)isoquinoline Oxalate], the figures for the Ki at serotonin 1A receptor and on serotonin 2 receptor were 109 nM and 101 nM, respectively.

For `CCN1CCN(c2nc(-c3ccc(OC)cc3)cc3cccc(F)c23)CC1` [Example 233, 1-(1-ethylpiperazin-4-yl)-8-fluoro-3-(4-methoxyphenyl)isoquinoline dihydrochloride], the figures for the Ki on serotonin 1A receptor and at serotonin 2 receptor were 200 nM and 1.97 nM, respectively.

On to `CCOCCCc1ccc(-c2cc3ccccc3c(N3CCN(CC)CC3)n2)cn1` [Example 142, 1-(1-Ethylpiperazin-4-yl)-3-[2-(3-Ethoxypropyl)Pyridin-5-yl]Isoquinoline Oxalate], for which the Ki at serotonin 1A receptor was found to be 3.3 nM; on serotonin 2 receptor it was 15.2 nM.

With `CCN1CCN(c2nc(-c3ccc(OCCn4ccnc4)cc3)cc3ccccc23)CC1` [Example 56, 3-{4-[2-(1-Imidazonyl)Ethoxy]phenyl}-1-(4-Ethylpiperazin-1-Yl)Isoquinoline Hydrochloride], the Ki at serotonin 1A receptor amounted to 37.4 nM; on serotonin 2 receptor, 59.5 nM.

Consider `CCN1CCN(c2nc(-c3ccc(C4CCOCC4)nc3)cc3ccccc23)CC1` [Example 156, 3-[2-(tetrahydropyran-4-yl)pyridin-5-yl]-1-(4-ethylpiperazin-1-yl)isoquinoline oxalate], for which the Ki on serotonin 1A receptor stood at 10.9 nM; on serotonin 2 receptor, 0.01 nM.

As for `CCN1CCN(c2nc(C(C)c3ccc(OC)cc3)cc3ccccc23)CC1` (stereo not drawn) [Example 102, 3-[α-Methyl-(4-methoxybenzyl)]-1-(4-ethylpiperazin-1-yl)isoquinoline Oxalate], the figures for the Ki on serotonin 1A receptor and at serotonin 2 receptor were 129 nM and 132 nM, respectively.

Consider `CCN1CCN(c2nc(/C=C/c3ccc(N4CCOCC4)cc3)cc3ccccc23)CC1` [Example 205, 3-{(E)-2-[4-(4-Morpholinyl)Phenyl]Ethenyl}-1-(4-Ethylpiperazin-1-Yl)Isoquinoline Oxalate], for which the Ki at serotonin 1A receptor worked out at 33.1 nM; on serotonin 2 receptor, 0.98 nM.

`CCN1CCN(c2nc(/C=C/c3cncc(N4CCOCC4)n3)cc3ccccc23)CC1` [Example 216, 3-{(E)-2-[2-(4-morpholinyl)pyrazin-6-yl]ethenyl}-1-(4-ethylpiperazin-1-yl)isoquinoline oxalate]: the Ki on serotonin 1A receptor worked out at 16.6 nM; at serotonin 2 receptor it was 15.5 nM.

Regarding `CCN1CCN(c2nc(-c3ccc(O[C@@H](C)CO)cc3)cc3ccsc23)CC1` [Example 438, 7-(4-ethylpiperazin-1-yl)-5-[4-(1-methyl-2-hydroxyethoxy)phenyl]thieno[2,3-c]pyridine dihydrochloride], the Ki is 62.9 nM on serotonin 1A receptor and 18.8 nM on serotonin 2 receptor.

For the compound `CCN1CCN(c2nc(C(C)=Cc3ccccc3)cc3ccccc23)CC1` [Example 192, 1-(1-Ethylpiperazin-4-Yl)-3-(Cis-1-Methyl-2-Phenylethenyl) Isoquinoline Oxalate], the Ki came out at 66.7 nM at serotonin 1A receptor and 7.85 nM on serotonin 2 receptor.

Consider `CCN1CCN(c2nc(-c3ccc(OC)c(CCCO)c3)cc3ccsc23)CC1` [Example 261, 5-[3-(3-hydroxypropyl)-4-methoxyphenyl]-7-(4-ethylpiperazin-1-yl)thieno[2,3-c]pyridine Oxalate], for which the figures for the Ki at serotonin 1A receptor and at serotonin 2 receptor were 53.7 nM and 0.06 nM, respectively.

As for `CCN1CCN(c2nc(C#Cc3ccc(OC)cc3OC)cc3ccccc23)CC1` [Example 185, 1-(1-Ethylpiperazin-4-Yl)-3-(2,4-Dimethoxyphenylethynyl)Isoquinoline Dihydrochloride], the Ki on serotonin 1A receptor turned out to be 21.2 nM; at serotonin 2 receptor, 2 nM.

Turning to `CCN1CCN(c2nc(-c3ccc(C(C)O)cc3)cc3ccccc23)CC1` (stereo not drawn) [Example 348, 1-(4-ethylpiperazin-1-yl)-3-[4-(1-hydroxyethyl)phenyl]isoquinoline dihydrochloride], the Ki was 11 nM on serotonin 1A receptor and 1.6 nM on serotonin 2 receptor.

Regarding `CCN1CCN(c2nc(-c3ccc(CCC(C)O)cc3)cc3sccc23)CC1` (stereo not drawn) [Example 285, 4-(1-ethylpiperazin-4-yl)-6-[4-(3-hydroxybutyl)phenyl]thieno[3,2-c]pyridine hydrochloride], the results for the Ki on serotonin 1A receptor and at serotonin 2 receptor were 22.2 nM and 1.96 nM, respectively.

Regarding `CCN1CCN(c2nc(-c3ccc(CNS(=O)(=O)CC)cc3)cc3ccccc23)CC1` [Example 78, 3-(4-Ethylsulfonylaminomethylphenyl)-1-(4-Ethylpiperazin-1-Yl)Isoquinoline Hydrochloride], the Ki at serotonin 1A receptor is 0.56 nM; on serotonin 2 receptor, 1.9 nM.

In the case of `CCCNS(=O)(=O)Cc1ccc(-c2cc3ccccc3c(N3CCN(CC)CC3)n2)cc1` [Example 81, 3-(4-Propylaminosulfonylmethylphenyl)-1-(4-Ethylpiperazin-1-Yl)Isoquinoline Hydrochloride], the Ki on serotonin 1A receptor came to 1.1 nM; at serotonin 2 receptor, 15.1 nM.

Turning to `CCN1CCN(c2nc(-c3ccc(CCO)cc3)cc3ccccc23)CC1` [Example 351, 1-(4-ethylpiperazin-1-yl)-3-[4-(2-hydroxyethyl)phenyl]isoquinoline dihydrochloride], the Ki at serotonin 1A receptor stood at 15.7 nM; at serotonin 2 receptor it was 6.4 nM.

For `CCN1CCN(c2nc(/C=C(\C)c3ccc(N4CCOCC4)cc3)cc3ccccc23)CC1` [Example 206, 3-{(E)-2-Methyl-2-[4-(4-Morpholinyl)Phenyl]Ethenyl}-1-(4-Ethylpiperazin-1-Yl)Isoquinoline Oxalate], the values for the Ki on serotonin 1A receptor and at serotonin 2 receptor were 77.1 nM and 2.59 nM, respectively.

Take `CCN1CCN(c2nc(/C=C/c3ccc(OCCO)cc3)cc3ccsc23)CC1` [Example 431, 7-(4-ethylpiperazin-1-yl)-5-[4-(2-hydroxyethoxy)styryl]thieno[2,3-c]pyridine hydrochloride]: the Ki on serotonin 1A receptor is 1.98 nM; at serotonin 2 receptor, 2.11 nM.
